Experimental data: patent US9816998B2, “Circulating exosomes as diagnostic/prognostic indicators and therapeutic targets of melanoma and other cancers” (Cornell University, priority 2011, dated 2017)

System: HGF/MET signaling
Assay: BM cell response to HGF after exosome pre-treatment: western blot of phospho-S6 kinase and phospho-ERK
Format: cell-based, mice
Conditions: 20 nM, before HGF addition
Description: Mice were sacrificed and BM was isolated by flushing the femur and tibia with staining media (1% BSA in PBS) using a 25G½″ needle (BD) and further disrupting it by pipeting. Cell suspensions were filtered through 70 μm cell strainers (BD) prior to centrifugation. Red blood cells (RBC) from BM suspensions were lysed using ACK Lysis Buffer (Invitrogen). To enrich for progenitors, lineage positive (Lin^+, i.e., CD5, CD45R, CD19, CD11b, Ly6G/C, 7-4, TER119 positive) BM cells were immunomagnetically depleted using the EasySep® Mouse Hematopoietic Progenitor Cell Enrichment Kit (Stem Cell Technologies) as per manufacturer's instructions. For in vitro BM treatment with exosomes, BM cells were flushed as above and cultured in Stem Span (Stem Cell Technologies) for 16 hours in the presence or absence of 20 μg/ml indicated exosomes. For HGF analysis BM cells were then stimulated with 5 ng/ml HGF (Peprotech) for 4 hours and collected for Western blot analysis in RIPA buffer as indicated below by adding phosphatase inhibitors (1 mM Sodium orthovanadate and 5 mM β-Glycerol phosphate). For MET signaling inhibition, cells were incubated with 20 nM Crizotinib (Selleck Bio) 1 hour before HGF stimulation.
Exosomes or cells were lysed with RIPA buffer containing a complete protease inhibitor tablet (Roche). Lysates were cleared by centrifugation at 14,000×g for 20 min. […]

C[C@@H](Oc1cc(-c2cnn(C3CCNCC3)c2)cnc1N)c1c(Cl)ccc(F)c1Cl [Crizotinib]
Phosphorylation of ERK after F10 exosome treatment: blocked the phosphorylation
Phosphorylation of S6-kinase after F10 exosome treatment: blocked the phosphorylation
